One assay has as its system Enterobacter cloacae 233. Kind of assay: Antibacterial Spectrum, agar dilution method. The assay is classed as cell-based. The following applies: inoculum 10^6 cells/ml, sensitivity disc agar, 37° C. overnight, read-out: Minimum Inhibitory Concentration. The procedure: (§1) Determined by agar dilution method;
(§2) Inoculum size is 10^6 cells/ml;
(§3) Cultivation in sensitivitydisc agar at 37° C. overnight.
A general note: In agar dilution the substance is mixed into plates at graded concentrations.

The subject of assay [1] is Escherichia coli NIHJ JC-2. Kind of assay: Antibacterial Spectrum, agar dilution method. It is filed as cell-based. The following applies: NIHJJC2, inoculum 10^6 cells/ml, sensitivity disc agar, 37° C. overnight, read-out: Minimum Inhibitory Concentration. The procedure: as §1, §2, §3
For assay [2], the system named is Klebsiella pneumoniae SRL-1. Kind of assay: Antibacterial Spectrum, agar dilution method. The assay is classed as cell-based. Conditions: SRL1, inoculum 10^6 cells/ml, sensitivity disc agar, 37° C. overnight, read-out: Minimum Inhibitory Concentration. The procedure: as §1, §2, §3
The subject of the next assay is Klebsiella sp. 363(R). Kind of assay: Antibacterial Spectrum, agar dilution method. It is filed as cell-based. Conditions: inoculum 10^6 cells/ml, sensitivity disc agar, 37° C. overnight, read-out: Minimum Inhibitory Concentration. On the procedure: as §1, §2, §3
The subject of a further assay is Proteus mirabilis PR-4. Kind of assay: Antibacterial Spectrum, agar dilution method. It is filed as cell-based. The following applies: PR4, inoculum 10^6 cells/ml, sensitivity disc agar, 37° C. overnight, read-out: Minimum Inhibitory Concentration. The procedure:
as §1, §2, §3

The test system of assay [3] is Pseudomonas aeruginosa ATCC 25619. Kind of assay: Antibacterial Spectrum, agar dilution method. It is filed as cell-based. The following applies: ATCC25619, inoculum 10^6 cells/ml, sensitivity disc agar, 37° C. overnight, read-out: Minimum Inhibitory Concentration. The procedure: as §1, §2, §3
The test system of assay [4] is Staphylococcus aureus 209P JC-1. Kind of assay: Antibacterial Spectrum, agar dilution method. It is filed as cell-based. The following applies: inoculum 10^6 cells/ml, sensitivity disc agar, 37° C. overnight, read-out: Minimum Inhibitory Concentration. On the procedure: as §1, §2, §3
Assay [5] has as its system Streptococcus pneumoniae I. Kind of assay: Antibacterial Spectrum, agar dilution method. It is filed as cell-based. Conditions: inoculum 10^6 cells/ml, sensitivity disc agar, 37° C. overnight, read-out: Minimum Inhibitory Concentration. The procedure:
as §1, §2, §3

In assay [6] the target is β-lactamase of Enterobacter cloacae 92 (cephalosporinase type) (Enterobacter cloacae, UniProt P05364). Kind of assay: β-Lactamase inhibitory test, cephalosporinase-type. The assay is classed as biochemical. The following applies: 10 minutes preincubation, room temperature, minimum concentration to inhibit color change of indicator. The procedure:
*1 producing lactamase of cephalosporinasetype
(§4) *3 The test compound was incubated with enzyme at room temperature for 10
(§5) minutes prior to adding an indicator and the minimum concentration to
(§6) inhibit color change was determined.

The test system of assay [7] is β-lactamase of Klebsiella sp. 363 (penicillinase type). Kind of assay: β-Lactamase inhibitory test, penicillinase-type. It is filed as biochemical. Conditions: 10 minutes preincubation, room temperature, minimum concentration to inhibit color change of indicator. The procedure: *2 producing lactamase of penicillinasetype
as §4, §5, §6

≈ marks a conversion by molar mass, not a printed value.

Sequence of β-lactamase of Enterobacter cloacae 92 (cephalosporinase type) (P05364 21-381): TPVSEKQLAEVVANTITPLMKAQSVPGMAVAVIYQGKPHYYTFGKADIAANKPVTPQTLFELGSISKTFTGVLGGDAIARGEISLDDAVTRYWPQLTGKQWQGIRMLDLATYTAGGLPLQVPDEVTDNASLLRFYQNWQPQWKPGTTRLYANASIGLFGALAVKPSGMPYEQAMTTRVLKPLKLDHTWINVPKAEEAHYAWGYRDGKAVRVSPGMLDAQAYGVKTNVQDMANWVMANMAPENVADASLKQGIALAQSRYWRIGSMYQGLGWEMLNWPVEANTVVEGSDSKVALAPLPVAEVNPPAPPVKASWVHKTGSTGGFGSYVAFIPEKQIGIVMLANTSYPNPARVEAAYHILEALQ

Turning to `CC(OS(=O)(=O)O)C1C(=O)N2C(C(=O)O)=C(SCC(=O)O)CC12` (stereo not drawn) [Deoxy PLM B, 3-Carboxymethylthio-6-(1-hydroxysulfonyloxyethyl)-7-oxo-1-azabicyclo[3.2.0]-hept-2-ene-2-carboxylic acid], the MIC was 6.25 µg/mL (≈ 17 µM) in the assay on Enterobacter cloacae 233; 1.56 µg/mL (≈ 4.25 µM) in [1]; 0.78 µg/mL (≈ 2.12 µM) in [2]; 1.56 µg/mL (≈ 4.25 µM) with Klebsiella sp. 363(R); 0.78 µg/mL (≈ 2.12 µM) in the assay on Proteus mirabilis PR-4; greater than 100 µg/mL in assay [3]. Also, the results for the MIC in assay [4] and in assay [5] were 3.13 µg/mL (≈ 8.52 µM) and 1.56 µg/mL (≈ 4.25 µM), respectively. In addition, the “Minimum Effective Concentration” value worked out at 0.002 µg/mL in [6] and 0.063 µg/mL in assay [7].
Turning to `CC(OS(=O)(=O)O)C1C(=O)N2C(C(=O)O)=C(SC(O)O)CC12` (stereo not drawn) [Deoxy PLM C, 3-dihydroxymethylthio-6-(1-hydroxysulfonyloxyethyl)-7-oxo-1-azabicyclo[3.2.0]-hept-2-ene-2-carboxylic acid], the MIC with Enterobacter cloacae 233 is 3.13 µg/mL (≈ 8.81 µM); in assay [1], 0.78 µg/mL (≈ 2.2 µM); in assay [2], 0.78 µg/mL (≈ 2.2 µM); in the assay with Klebsiella sp. 363(R), 0.78 µg/mL (≈ 2.2 µM); with Proteus mirabilis PR-4 it was 0.78 µg/mL (≈ 2.2 µM); in [3], greater than 100 µg/mL. The MIC in assay [4] was 0.78 µg/mL (≈ 2.2 µM); in [5] it was 0.2 µg/mL (≈ 0.563 µM). The “Minimum Effective Concentration” value in [6] is 0.002 µg/mL; in assay [7], 0.125 µg/mL.
As for `CC(OS(=O)(=O)O)C1C(=O)N2C(C(=O)O)=C([S+]([O-])CO)CC12` (stereo not drawn) [Dihydro PLM C, 3-hydroxymethylsulfinyl-6-(1-hydroxysulfonyloxyethyl)-7-oxo-1-azabicyclo[3.2.0]-hept-2-ene-2-carboxylic acid], the MIC with Enterobacter cloacae 233 was greater than 100 µg/mL; in assay [1], 12.5 µg/mL (≈ 35.2 µM); in assay [2], 25 µg/mL (≈ 70.4 µM); in the assay with Klebsiella sp. 363(R), 12.5 µg/mL (≈ 35.2 µM); in the assay with Proteus mirabilis PR-4 it was 25 µg/mL (≈ 70.4 µM); in assay [3], greater than 100 µg/mL. The MIC turned out to be 12.5 µg/mL (≈ 35.2 µM) in assay [4] and 3.1 µg/mL (≈ 8.72 µM) in assay [5]. The “Minimum Effective Concentration” value is 0.008 µg/mL in [6] and 0.004 µg/mL in [7].
